According to US20060242739A1, “Plant nucleotide-sugar pyrophosphatase/phosphodiesterase (nppase), method of obtaining same and use of same in the production of assay devices and in the production of transgenic plants” (Universidad Publica De Navarra, priority 2002, published 2006):

Key:
NPPase from rice leaves = NPPase from rice leaves (Oryza sativa, UniProt Q0X0G2); assay: Kinetic parameters and substrate specificity of the NPPase from rice leaves; settings: substrate of NPPase from rice leaves
[1] = target: T1, NPPase from barley leaves (Hordeum vulgare, UniProt Q687E1); assay: Enzymatic test of soluble NPPase from barley leaves: kinetic parameters, substrate specificity, effectors; settings: for Vmax: Vmax in % in relation to ADPG, NPPase from barley leaves; for hydrolysis by NPPase (substrate recognition) / effect on NPPase activity (inhibition): qualitative; for Km: substrate of NPPase from barley leaves
T1 sequence (Q687E1 19-368): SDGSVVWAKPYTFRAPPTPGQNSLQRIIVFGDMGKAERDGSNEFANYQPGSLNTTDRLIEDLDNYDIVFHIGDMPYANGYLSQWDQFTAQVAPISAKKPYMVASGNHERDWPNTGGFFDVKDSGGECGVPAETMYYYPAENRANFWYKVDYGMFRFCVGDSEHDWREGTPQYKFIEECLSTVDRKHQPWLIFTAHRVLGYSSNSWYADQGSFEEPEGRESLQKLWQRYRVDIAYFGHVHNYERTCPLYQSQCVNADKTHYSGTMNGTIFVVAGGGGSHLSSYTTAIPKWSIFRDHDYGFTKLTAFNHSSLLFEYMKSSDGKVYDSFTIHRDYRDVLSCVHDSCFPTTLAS

Chain of NPPase from rice leaves (Q0X0G2 26-623 limits assumed): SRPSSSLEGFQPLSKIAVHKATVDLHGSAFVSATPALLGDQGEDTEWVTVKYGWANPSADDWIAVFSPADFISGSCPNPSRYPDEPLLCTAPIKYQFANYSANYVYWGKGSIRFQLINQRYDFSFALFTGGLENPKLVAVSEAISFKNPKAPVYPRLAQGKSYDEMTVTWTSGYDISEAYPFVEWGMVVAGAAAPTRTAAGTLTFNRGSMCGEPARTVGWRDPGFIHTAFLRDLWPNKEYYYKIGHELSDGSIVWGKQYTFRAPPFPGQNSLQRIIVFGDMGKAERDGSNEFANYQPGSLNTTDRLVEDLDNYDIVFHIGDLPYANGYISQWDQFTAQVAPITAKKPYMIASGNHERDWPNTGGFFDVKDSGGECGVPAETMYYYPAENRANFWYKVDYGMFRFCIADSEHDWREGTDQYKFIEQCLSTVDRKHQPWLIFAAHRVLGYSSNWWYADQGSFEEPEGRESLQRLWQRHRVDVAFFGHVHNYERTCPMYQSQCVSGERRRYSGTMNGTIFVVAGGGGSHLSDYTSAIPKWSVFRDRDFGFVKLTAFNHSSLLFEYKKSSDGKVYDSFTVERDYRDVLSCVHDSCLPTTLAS

Compound | Vmax [1] | hydrolysis by NPPase (substrate recognition) [1] | effect on NPPase activity (inhibition) [1] | other results
O=P(O)(O)OP(=O)(O)O [PPi, inorganic pyrophosphate] |  |  |  | Vmax (NPPase from rice leaves): 176 μmol min^−1 (mg protein)^−1
Nc1ccn([C@@H]2O[C@H](COP(=O)(O)OP(=O)(O)O[C@H]3O[C@H](CO)[C@@H](O)[C@H](O)[C@H]3O)[C@@H](O)[C@H]2O)c(=O)n1 [CDPG, CDP-glucose] | 114% |  |  | 
Nc1ncnc2c1ncn2[C@@H]1O[C@H](COP(=O)(O)OP(=O)(O)O[C@H]2O[C@H](CO)[C@@H](O)[C@H](O)[C@@H]2O)[C@@H](O)[C@H]1O [ADPmannose, ADP-mannose] | 30% |  |  | 
O=[N+]([O-])c1ccc(OP(=O)(O)Oc2ccc([N+](=O)[O-])cc2)cc1 [bis-PNPP, bis-paranitrophenylphosphate] | 100% | hydrolyses |  | 
O=[N+]([O-])c1ccc(OP(=O)(O)O)cc1 [PNPP] | 100% |  |  | 
NC(=O)c1ccc[n+]([C@@H]2O[C@H](COP(=O)([O-])OP(=O)(O)OC[C@H]3O[C@@H](n4cnc5c(N)ncnc54)[C@H](OP(=O)(O)O)[C@@H]3O)[C@@H](O)[C@H]2O)c1 [NADP^+] | n.q. |  |  | Km [1]: n.q.
Nc1nc2c(ncn2[C@@H]2O[C@H](COP(=O)(O)OP(=O)(O)O[C@H]3O[C@H](CO)[C@@H](O)[C@H](O)[C@H]3O)[C@@H](O)[C@H]2O)c(=O)[nH]1 [GDP-glucose] |  | recognizes |  | 
Nc1ncnc2c1ncn2[C@@H]1O[C@H](COP(=O)(O)O)[C@@H](O)[C@H]1O [PAP, adenosine-5′-phosphate] | n.q. |  |  | Km [1]: n.q.
O=C[C@H](O)[C@@H](O)[C@H](O)[C@H](O)COP(=O)(O)O [G6P, glucose-6-phosphate] |  | does not hydrolyse |  | 
Nc1ncnc2c1ncn2[C@@H]1O[C@H](COP(=O)(O)OP(=O)(O)O)[C@@H](O)[C@H]1O [ADP] | 40% |  | inhibited | 
Nc1ncnc2c1ncn2[C@@H]1O[C@H](COP(=O)(O)O)[C@@H](O)[C@H]1O [AMP] |  | does not hydrolyse | inhibited | 
O=C(O)[C@H](O)COP(=O)(O)O [3-phosphoglycerate] |  | does not hydrolyse | inhibited | 
Nc1nc2c(ncn2[C@@H]2O[C@H](COP(=O)(O)OP(=O)(O)O[C@H]3O[C@H](CO)[C@@H](O)[C@H](O)[C@@H]3O)[C@@H](O)[C@H]2O)c(=O)[nH]1 [GDPmannose, GDP-mannose] | 30% |  |  | 
[O]=[Mo](=[O])([O-])[O-] [molybdate] |  |  | strongly inhibited | 
arsenate |  |  | strongly inhibited | 
NC(=O)c1ccc[n+]([C@@H]2O[C@H](COP(=O)(O)OP(=O)(O)OC[C@H]3O[C@@H](n4cnc5c(N)ncnc54)[C@H](O)[C@@H]3O)[C@@H](O)[C@H]2O)c1 [NAD^+] | 100% |  |  | 
OCCS [β-mercaptoethanol] |  |  | not affected | 
Nc1ncnc2c1ncn2[C@@H]1O[C@H](COP(=O)(O)OS(=O)(=O)O)[C@@H](O)[C@H]1O [APS, adenosine 5′-phosphosulphate] |  |  |  | Vmax (NPPase from rice leaves): 282 μmol min^−1 (mg protein)^−1
Nc1ncnc2c1ncn2[C@@H]1O[C@H](COP(=O)(O)OP(=O)(O)O[C@H]2O[C@H](CO)[C@@H](O)[C@H](O)[C@H]2O)[C@@H](O)[C@H]1O [ADPG, ADPglucose] | 100% | catalyses the hydrolysis |  | 
ADP-ribose [ADPribose] | 100% |  |  | 
